Measurements as given in patent US20240101546A1, “HETEROARYL-ACETYLENES, PHARMACEUTICAL COMPOSITIONS THEREOF, AND THEIR THERAPEUTIC APPLICATIONS” (Eubulus Biotherapeutics Inc., priority 2020, published 2024).

Test system: hepatocellular carcinoma cell line Hub-7
Assay: Cell proliferation assay, Hub-7 (CELL-TITER GLO)
Assay type: cell-based
Settings: Hub-7 cells, 24 h incubation, cell viability by CELL-TITER GLO, top concentration 10 μM; read-out: EC50, Inhibition of Hub-7 Cell Proliferation
Procedure: The activity of a compound was determined in a cell proliferation assay using the hepatocellular carcinoma cell line Hub-7. Cells (4,000 cells per well) were seeded in a 96-well tissue culture plate. After incubated overnight, the compound was added at predetermined concentrations, starting with 10 μM and followed by 3-fold serial dilution. After the cells were incubated for 24 h, cell viability was determined using a CELL-TITER GLO® assay. The CELL-TITER GLO® reagent (50 μL) was added to each well and the luminescence was measured by a multimode microplate reader after a brief period of shaking. EC50 values were determined for the compound. The results are summarized in Table 1, wherein A represents a value no greater than 200 nM, B represents a value greater than 200 nM but no greater than 1 μM, C represents a value greater than 1 μM but no greater than 5 μM, and D represents a value greater than 5 μM.

SMILES | EC50 [µM]
C#Cc1nc(C(=O)NCc2ccc(-c3ccn(C)n3)cc2)cs1 [Compound C54, 2-Ethynyl-N-(4-(1-methyl-1H-pyrazol-3-yl)benzyl)thiazole-4-carboxamide] | 0.2 to 1
C#Cc1nc(C(=O)NCc2ccc(-c3cscn3)cc2)cs1 [Compound C55, 2-Ethynyl-N-(4-(thiazol-4-yl)benzyl)thiazole-4-carboxamide] | 0.2 to 1
C#Cc1nc(C(=O)NCc2cccc(Cl)c2)c(-c2ccccc2)s1 [Compound C56, N-(3-Chlorobenzyl)-2-ethynyl-5-phenylthiazole-4-carboxamide] | 1 to 5
C#Cc1nc(C(=O)NCCc2ccc(-c3cncs3)cc2)cs1 [Compound C57, 2-Ethynyl-N-(4-(thiazol-5-yl)phenethyl)thiazole-4-carboxamide] | 0.2 to 1
C#Cc1nc(C(=O)NCc2cccc(-c3cn[nH]c3)c2)cs1 [Compound C58, N-(3-(1H-Pyrazol-4-yl)benzyl)-2-ethynylthiazole-4-carboxamide] | 1 to 5
C#Cc1nc(C(=O)NCc2cccc(-c3cnn(C)c3)c2)cs1 [Compound C59, 2-Ethynyl-N-(3-(1-methyl-1H-pyrazol-4-yl)benzyl)thiazole-4-carboxamide] | 1 to 5
C#Cc1nc(C(=O)NCc2cccc(-c3cc[nH]n3)c2)cs1 [Compound C60, N-(3-(1H-Pyrazol-3-yl)benzyl)-2-ethynylthiazole-4-carboxamide] | 0.2 to 1
C#Cc1nc(C(=O)NCc2ccc(-c3cncs3)cc2)cs1 [Compound C61, 2-Ethynyl-N-(4-(thiazol-5-yl)benzyl)thiazole-4-carboxamide] | 0.2 to 1
C#Cc1nc(C(=O)NC2Cc3ccccc3C2)cs1 [Compound C62, N-(2,3-Dihydro-1H-inden-2-yl)-2-ethynylthiazole-4-carboxamide] | 0.2 to 1
C#Cc1nc(C(=O)NCc2ccccc2C#N)cs1 [Compound C63, N-(2-Cyanobenzyl)-2-ethynylthiazole-4-carboxamide] | ≤ 0.2
C#Cc1nc(C(=O)NCc2ccc3ccccc3c2)cs1 [Compound C64, 2-Ethynyl-N-(naphthalen-2-ylmethyl)thiazole-4-carboxamide] | ≤ 0.2
C#Cc1nc(C(=O)NCc2cccc(-c3cccnc3)c2)cs1 [Compound C65, 2-Ethynyl-N-(3-(pyridin-3-yl)benzyl)thiazole-4-carboxamide] | 1 to 5
C#Cc1nc(C(=O)NCc2ccc3ncsc3c2)cs1 [Compound C66, N-(Benzo[d]thiazol-6-ylmethyl)-2-ethynylthiazole-4-carboxamide] | 1 to 5
C#Cc1nc(C(=O)N[C@H](C)c2cccc(Cl)c2)cs1 [Compound C67, (R)—N-(1-(3-Chlorophenyl)ethyl)-2-ethynylthiazole-4-carboxamide] | 1 to 5
C#Cc1nc(C(=O)NC2(c3cccc(Cl)c3)CC2)cs1 [Compound C68, N-(1-(3-Chlorophenyl)cyclopropyl)-2-ethynylthiazole-4-carboxamide] | 0.2 to 1
C#Cc1nc(C(=O)N[C@@H](C)c2cccc(Cl)c2)cs1 [Compound C69, (S)—N-(1-(3-Chlorophenyl)ethyl)-2-ethynylthiazole-4-carboxamide] | ≤ 0.2
C#Cc1nc(C(=O)NCc2ccccc2CO)cs1 [Compound C70, 2-Ethynyl-N-(2-(hydroxymethyl)benzyl)thiazole-4-carboxamide] | 1 to 5
C#Cc1nc(C(=O)N[C@H]2CCc3ccccc32)cs1 [Compound C71, (S)—N-(2,3-Dihydro-1H-inden-1-yl)-2-ethynylthiazole-4-carboxamide] | 0.2 to 1
C#Cc1nc(C(=O)N[C@@H]2CCc3ccccc32)cs1 [Compound C72, (R)—N-(2,3-Dihydro-1H-inden-1-yl)-2-ethynylthiazole-4-carboxamide] | 0.2 to 1
C#Cc1nc(C(=O)NCc2ccc(CCC(=O)OC)cc2)cs1 [Compound C73, Methyl 3-(4-((2-ethynylthiazole-4-carboxamido)methyl)phenyl)propanoate] | > 5
C#Cc1nc(C(=O)NCc2ccccc2C(=O)OC)cs1 [Compound C74, Methyl 2-((2-ethynylthiazole-4-carboxamido)methyl)benzoate] | 0.2 to 1
C#Cc1nc(C(=O)NCCc2ccc(-c3cnn(C)c3)cc2)cs1 [Compound C75, 2-Ethynyl-N-(4-(1-methyl-1H-pyrazol-4-yl)phenethyl)thiazole-4-carboxamide] | 0.2 to 1
C#Cc1nc(C(=O)NCCc2ccc(-c3cn[nH]c3)cc2)cs1 [Compound C76, N-(4-(1H-Pyrazol-4-yl)phenethyl)-2-ethynylthiazole-4-carboxamide] | 1 to 5
C#Cc1nc(NC(=O)Cc2ccccc2)cs1 [Compound C77, N-(2-Ethynylthiazol-4-yl)-2-phenylacetamide] | 0.2 to 1
C#Cc1nc(C(=O)NC2CCN(c3ccccc3)CC2)cs1 [Compound C78, 2-Ethynyl-N-(1-phenylpiperidin-4-yl)thiazole-4-carboxamide] | 0.2 to 1

SMILES | EC50 [µM]
C#Cc1nc(C(=O)NCCc2ccc(-c3cccnc3)cc2)cs1 [Compound C79, 2-Ethynyl-N-(4-(pyridin-3-yl)phenethyl)thiazole-4-carboxamide] | 0.2 to 1
C#Cc1nc(C(=O)NCCc2ccc(Br)cc2)cs1 [Compound C80, N-(4-Bromophenethyl)-2-ethynylthiazole-4-carboxamide] | 0.2 to 1
C#Cc1nc(C(=O)NCCc2cccc(NS(C)(=O)=O)c2)cs1 [Compound C81, 2-Ethynyl-N-(3-(methylsulfonamido)phenethyl)thiazole-4-carboxamide] | 1 to 5
C#Cc1nc(C(=O)NCCc2cccc(NC(C)=O)c2)cs1 [Compound C82, N-(3-Acetamidophenethyl)-2-ethynylthiazole-4-carboxamide] | 1 to 5
C#Cc1nc(C(=O)NCc2ccc(-c3cnn(C)c3)cc2)cs1 [Compound C83, 2-Ethynyl-N-(4-(1-methyl-1H-pyrazol-4-yl)benzyl)thiazole-4-carboxamide] | 1 to 5
C#Cc1nc(C(=O)NCCc2ccc(C(=O)OC)cc2)cs1 [Compound C84, Methyl 4-(2-(2-ethynylthiazole-4-carboxamido)ethyl)benzoate] | 1 to 5
C#Cc1nc(C(=O)NCCc2cccc(N)c2)cs1 [Compound C85, N-(3-Aminophenethyl)-2-ethynylthiazole-4-carboxamide] | 1 to 5
C#Cc1nc(C(=O)NCc2ccc3c(c2)OCCO3)cs1 [Compound C86, N-((2,3-Dihydrobenzo[b][1,4]dioxin-6-yl)methyl)-2-ethynylthiazole-4-carboxamide] | 1 to 5
C#Cc1nc(C(=O)NCCc2cccc([N+](=O)[O-])c2)cs1 [Compound C87, 2-Ethynyl-N-(3-nitrophenethyl)thiazole-4-carboxamide] | 0.2 to 1
C#Cc1nc(C(=O)NCCc2ccc(NC(C)=O)cc2)cs1 [Compound C88, N-(4-Acetamidophenethyl)-2-ethynylthiazole-4-carboxamide] | 1 to 5
C#Cc1nc(C(=O)NCc2ccc(NC(C)=O)cc2)cs1 [Compound C89, N-(4-Acetamidobenzyl)-2-ethynylthiazole-4-carboxamide] | > 5
N#Cc1nc(C(=O)NCc2ccccc2)cs1 [Compound C90, N-Benzyl-2-cyanothiazole-4-carboxamide] | > 5
C#Cc1nc(C(=O)NCc2ccc(-c3cc[nH]n3)cc2)cs1 [Compound C91, N-(4-(1H-Pyrazol-3-yl)benzyl)-2-ethynylthiazole-4-carboxamide] | 1 to 5
C#Cc1nc(C(=O)NCc2ccc(-c3cn[nH]c3)cc2)cs1 [Compound C92, N-(4-(1H-Pyrazol-4-yl)benzyl)-2-ethynylthiazole-4-carboxamide] | 1 to 5
C#Cc1nc(C(=O)NCc2ccc(-c3cccnc3)cc2)cs1 [Compound C93, 2-Ethynyl-N-(4-(pyridin-3-yl)benzyl)thiazole-4-carboxamide] | 0.2 to 1
C#Cc1nc(C(=O)NCc2cccc(NC(C)=O)c2)cs1 [Compound C94, N-(3-Acetamidobenzyl)-2-ethynylthiazole-4-carboxamide] | 1 to 5
C#Cc1nc(C(=O)NCc2cccc(N)c2)cs1 [Compound C95, N-(3-Aminobenzyl)-2-ethynylthiazole-4-carboxamide] | 1 to 5
C#Cc1nc(C(=O)NCc2ccc3ncccc3c2)cs1 [Compound C96, 2-Ethynyl-N-(quinolin-6-ylmethyl)thiazole-4-carboxamide] | 1 to 5
C#Cc1nc(C(=O)NCCc2cccc(C(=O)OC)c2)cs1 [Compound C97, Methyl 3-(2-(2-ethynylthiazole-4-carboxamido)ethyl)benzoate] | 0.2 to 1
C#Cc1nc(C(=O)NCc2ccccc2)cn1C [Compound C98, N-Benzyl-2-ethynyl-1-methyl-1H-imidazole-4-carboxamide] | > 5
C#Cc1nc(C(=O)NCCc2ccc(NS(C)(=O)=O)cc2)cs1 [Compound C99, 2-Ethynyl-N-(4-(methylsulfonamido)phenethyl)thiazole-4-carboxamide] | 1 to 5
C#Cc1nc(C(=O)N(C)CCc2ccc([N+](=O)[O-])cc2)cs1 [Compound C100, 2-Ethynyl-N-methyl-N-(4-nitrophenethyl)thiazole-4-carboxamide] | 0.2 to 1
C#Cc1nc(C(=O)NCCc2ccc(S(C)(=O)=O)cc2)cs1 [Compound C101, 2-Ethynyl-N-(4-(methylsulfonyl)phenethyl)thiazole-4-carboxamide] | > 5
C#Cc1nc(C(=O)NCCc2ccc(C#N)cc2)cs1 [Compound C102, N-(4-Cyanophenethyl)-2-ethynylthiazole-4-carboxamide] | 0.2 to 1
